Source: US12527779B2, “Prostaglandin E2 (PGE2) EP4 receptor antagonists” (Domain Therapeutics, priority 2019, dated 2026)
Where a name gives a salt, the structure may show the parent alone. One block for each molecule: values may come before it.

Columns and labels:
CT26 tumor cells = test: In vivo anti-tumoral activity in a CT26 tumor model; parameters: species or system BALB/c mice; details: Example 25 150 mg/kg po BID combined with anti-PD-1 antibody 200 μg/mouse iv Q3D; 12 mice per group
Description: (§1) CT26 tumor cells were maintained in vitro as a monolayer culture in RPM11640 medium supplemented with 10% fetal bovine serum at 37° C. in an atmosphere of 5% CO2 in air. The cells were routinely subcultured twice weekly by trypsin-EDTA treatment. The cells in an exponential growth phase were harvested and counted for tumor inoculation.
Female BALB/c mice were inoculated subcutaneously in the right rear flank region with CT26 tumor cells (5×10^5) in 0.1 ml of PBS for tumor development on day 0. Tumor volumes were measured thrice per week in two dimensions using a caliper, and the volume was expressed in mm^3 using the formula: “V=(L×W×W)/2”, where V is tumor volume, L is tumor length (the longest tumor dimension) and W is tumor width (the longest tumor dimension perpendicular to L). […]
Animals were checked daily for morbidity and mortality. During routine monitoring, the animals were checked for any effects on tumor growth and treatments on behavior such as mobility, food and water consumption, body weight gain/loss (body weights were measured thrice per week), eye/hair matting and any other abnormalities. […] The body weights and tumor volumes were monitored by using StudyDirector™ software (version 3.1.399.19).

Pan02 tumor cells = test: In vivo anti-tumoral activity of Example 25 in a Pan02 tumor model; parameters: species or system C57BL/6 mice
Description: as §1, with “Pan02” for “CT26”
Female C57BL/6 mice were inoculated subcutaneously in the right rear flank region with Pan02 tumor cells (3×10^6) in 0.1 ml of PBS for tumor development on day 0. Tumor volumes were measured thrice per week in two dimensions using a caliper, and the volume was expressed in mm^3 using the formula: “V=(L×W×W)/2”, where V is tumor volume, L is tumor length (the longest tumor dimension) and W is tumor width (the longest tumor dimension perpendicular to L). When the mean tumor size reached approximately 100 mm^3, mice were randomly allocated into groups (10 mice per group) and treated with either a control antibody (rIgG2a(2A3), 200 μg/mouse, iv, Q3D) or an anti-PD-1 antibody (RPM1-14, 200 μg/mouse, iv, Q3D), with or without the compound of Example 25 (150 mg/kg, po, 0.5% MC, BID, BID time interval: 8 h) for at least 3 weeks.
Animals were checked daily for morbidity and mortality. During routine monitoring, the animals were checked for any effects on tumor growth and treatments on behavior such as mobility, food and water consumption, body weight gain/loss (body weights were measured thrice per week), eye/hair matting and any other abnormalities. Dosing as well as tumor and body weight measurements were conducted in a Laminar Flow Cabinet. The body weights and tumor volumes were monitored by using StudyDirector™ software (version 3.1.399.19).

[1] = biological target: T1, human EP4 (hEP4) receptor (Homo sapiens, UniProt P35408); test: In vitro human EP4 functional antagonist activity using BRET biosensors (cAMP EPAC biosensor, TCS2510 stimulation); type: cell-based; details: antagonist activity vs EC60 TCS2510, hEP4 in HEK-293 T cells
T1 construct: expressed in transfected cells; host or cells: HEK-293 T cells, transient co-transfection with polyethylenimine
T1 sequence (P35408 whole entry): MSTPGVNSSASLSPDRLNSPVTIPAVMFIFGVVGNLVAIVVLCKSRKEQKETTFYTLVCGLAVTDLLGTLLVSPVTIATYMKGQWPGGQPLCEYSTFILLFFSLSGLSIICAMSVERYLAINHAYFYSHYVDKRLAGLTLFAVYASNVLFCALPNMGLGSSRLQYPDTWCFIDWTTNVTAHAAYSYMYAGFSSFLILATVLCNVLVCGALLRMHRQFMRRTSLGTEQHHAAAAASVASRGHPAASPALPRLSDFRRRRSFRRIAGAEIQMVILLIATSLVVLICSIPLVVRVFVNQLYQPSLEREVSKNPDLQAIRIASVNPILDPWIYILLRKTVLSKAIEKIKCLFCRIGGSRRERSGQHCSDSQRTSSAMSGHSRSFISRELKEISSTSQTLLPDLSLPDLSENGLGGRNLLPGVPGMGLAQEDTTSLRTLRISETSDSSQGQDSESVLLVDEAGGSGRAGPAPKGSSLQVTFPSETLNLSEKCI
Procedure, shortened: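 Antagonism measured as inhibition of EC60 TCS2510-induced cAMP BRET signal (EPAC luciferase/GFP sensor) in transiently hEP4-expressing HEK-293T cells, following 5 min compound preincubation and 10 min luminescence recording. Plates equilibrated 1 h at 22 °C in HEPES buffer; 10 concentrations over 4.5 logs, duplicate in two independent experiments, sigmoidal variable-slope IC50.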

Compound: CN(CCOc1ccccc1)C1(C(=O)NC2(c3ccc(C(=O)O)cc3)CC2)CCOCC1.Cl [Example 25, 4-[1-[[4-[Methyl(2-phenoxyethyl)amino]tetrahydropyran-4-carbonyl]amino]cyclopropyl]benzoic acid, hydrochloride]
cases of complete tumor regression (CT26 tumor cells): 5 cases
complete tumor regression, % of the test animals (CT26 tumor cells): 42%
Tumor Growth Inhibition TGI (%) (Pan02 tumor cells; Example 25 150 mg/kg po BID + anti-PD1 antibody 0.2 mg/animal Q3D, day 0): 0.1%
Tumor Growth Inhibition TGI (%) (Pan02 tumor cells; Example 25 150 mg/kg po BID + anti-PD1 antibody 0.2 mg/animal Q3D, day 3): 10.9%
Tumor Growth Inhibition TGI (%) (Pan02 tumor cells; Example 25 150 mg/kg po BID + anti-PD1 antibody 0.2 mg/animal Q3D, day 7): 16.9%
Tumor Growth Inhibition TGI (%) (Pan02 tumor cells; Example 25 150 mg/kg po BID + anti-PD1 antibody 0.2 mg/animal Q3D, day 10): 26.1%
Tumor Growth Inhibition TGI (%) (Pan02 tumor cells; Example 25 150 mg/kg po BID + anti-PD1 antibody 0.2 mg/animal Q3D, day 14): 51.1%
Tumor Growth Inhibition TGI (%) (Pan02 tumor cells; Example 25 150 mg/kg po BID + anti-PD1 antibody 0.2 mg/animal Q3D, day 17): 62.8%
Tumor Growth Inhibition TGI (%) (Pan02 tumor cells; Example 25 150 mg/kg po BID + anti-PD1 antibody 0.2 mg/animal Q3D, day 21, hydrochloride, 150 mg/kg): 71.0%
Tumor Growth Inhibition TGI (%) (Pan02 tumor cells; Example 25 150 mg/kg po BID + rIgG2a, day 0): 0.0%
Tumor Growth Inhibition TGI (%) (Pan02 tumor cells; Example 25 150 mg/kg po BID + rIgG2a, day 3): 15.6%
Tumor Growth Inhibition TGI (%) (Pan02 tumor cells; Example 25 150 mg/kg po BID + rIgG2a, day 7): 22.5%
Tumor Growth Inhibition TGI (%) (Pan02 tumor cells; Example 25 150 mg/kg po BID + rIgG2a, day 10): 25.1%
Tumor Growth Inhibition TGI (%) (Pan02 tumor cells; Example 25 150 mg/kg po BID + rIgG2a, day 14): 51.5%
Tumor Growth Inhibition TGI (%) (Pan02 tumor cells; Example 25 150 mg/kg po BID + rIgG2a, day 17): 61.8%
Tumor Growth Inhibition TGI (%) (Pan02 tumor cells; Example 25 150 mg/kg po BID + rIgG2a, day 21, hydrochloride, 150 mg/kg): 68.5%
IC50 [1]: < 0.1 µM

Compound: C[C@H](NC(=O)C1(NCCOc2cc(F)cc(F)c2)CCOCC1)c1ccc(C(=O)O)cc1 [Example 16, 4-[(1S)-1-[[4-[2-(3,5-Difluorophenoxy)ethylamino]tetrahydropyran-4-carbonyl]amino]ethyl]benzoic acid, hydrochloride]
IC50 [1]: < 0.1 µM

Compound: C[C@H](NC(=O)C1(NCCOc2cccc(Cl)c2)CCOCC1)c1ccc(C(=O)O)cc1 [Example 8, 4-[(1S)-1-[[4-[2-(3-Chlorophenoxy)ethylamino]tetrahydropyran-4-carbonyl]amino]ethyl]benzoic acid, hydrochloride]
IC50 [1]: < 0.1 µM

Compound: O=C(O)c1ccc(C2(NC(=O)C3(NCCOc4cccc(Cl)c4)CCOCC3)CC2)cc1 [Example 28, 4-[1-[[4-[2-(3-Chlorophenoxy)ethylamino]tetrahydropyran-4-carbonyl]amino]cyclopropyl]benzoic acid, hydrochloride]
IC50 [1]: < 0.1 µM

Compound: CN(CCOc1cccc(C#N)c1)C1(C(=O)NC2(c3ccc(C(=O)O)cc3)CC2)CCOCC1 [Example 46, 4-[1-[[4-[2-(3-Cyanophenoxy)ethyl-methyl-amino]tetrahydropyran-4-carbonyl]amino]cyclopropyl]benzoic acid, hydrochloride]
IC50 [1]: < 1 µM

Now from value to molecule:

IC50 [1]: < 0.1 µM
Compound: C[C@H](NC(=O)C1(N2CC[C@@H](Oc3cccc(C(F)(F)F)c3)C2)CCCCC1)c1ccc(C(=O)O)cc1 [Example 162, 4-[(1S)-1-[[1-[(3R)-3-[3-(Trifluoromethyl)phenoxy]pyrrolidin-1-yl]cyclohexane-1-carbonyl]amino]ethyl]benzoic acid, hydrochloride]

IC50 [1]: < 0.1 µM
Compound: Cc1cc(C2(NC(=O)C3(N4CC[C@@H](Oc5cccc(C(F)(F)F)c5)C4)CCOCC3)CC2)ccc1C(=O)O [Example 198, (R)-2-Methyl-4-(1-(4-(3-(3-(trifluoromethyl)phenoxy)pyrrolidin-1-yl)tetrahydro-2H-pyran-4-carboxamido)cyclopropyl)benzoic acid, hydrochloride]

IC50 [1]: < 0.1 µM
Compound: CN(CCOc1ccccc1)C1(C(=O)NC2(c3ccc(C(=O)O)cc3Cl)CC2)CCOCC1 [Example 52, 3-Chloro-4-[1-[[4-[methyl(2-phenoxyethyl)amino]tetrahydropyran-4-carbonyl]amino]cyclopropyl]benzoic acid, hydrochloride]

IC50 [1]: < 0.1 µM
Compound: C[C@H](NC(=O)C1(N2CC[C@@H](Oc3cccc(C(F)(F)F)c3)C2)CCC(F)(F)CC1)c1ccc(C(=O)O)cc1 [Example 163, 4-[(1S)-1-[[1-[(3R)-3-[3-(Trifluoromethyl)phenoxy]pyrrolidin-1-yl]-4,4-difluorocyclohexane-1-carbonyl]amino]ethyl]benzoic acid, hydrochloride]

IC50 [1]: < 0.1 µM
Compound: C[C@H](NC(=O)C1(c2cccc(OCC3CCCCCC3)c2)CCOCC1)c1ccc(C(=O)O)cc1 [Example 103, 4-[(1S)-1-[[4-[3-(Cycloheptylmethoxy)phenyl]tetrahydropyran-4-carbonyl]amino]ethyl]benzoic acid]

IC50 [1]: < 0.1 µM
Compound: C[C@H](NC(=O)C1(c2cccc(OCc3ccccc3)c2)CCCC1)c1ccc(C(=O)O)cc1 [Example 113, 4-[(1S)-1-[[1-(3-Benzyloxyphenyl)cyclopentanecarbonyl]amino]ethyl]benzoic acid]
